In PMC3907537, “Evaluation of the Endothelin Receptor Antagonists Ambrisentan, Bosentan, Macitentan, and Sitaxsentan as Hepatobiliary Transporter Inhibitors and Substrates in Sandwich-Cultured Human Hepatocytes” (PLoS ONE, 2014):
Where “and” joins values, the source holds several entries; their conditions need not be identical. Equal entries are not always repeated.

Experiments:
BSEP = target: T1, BSEP (Homo sapiens, UniProt O95342); assay: BSEP inhibition, taurocholate transport in Sf9 membrane vesicles; assay type: biochemical; settings: taurocholate 2 µM, mean ± SD of 3 independent studies in duplicate, tested 0.14–100 µM
T1 construct: purchased Solvo Biotechnology, Budaors, Hungary; host or cells: Sf9 insect cells (membrane vesicles)
T1 sequence (O95342 whole entry): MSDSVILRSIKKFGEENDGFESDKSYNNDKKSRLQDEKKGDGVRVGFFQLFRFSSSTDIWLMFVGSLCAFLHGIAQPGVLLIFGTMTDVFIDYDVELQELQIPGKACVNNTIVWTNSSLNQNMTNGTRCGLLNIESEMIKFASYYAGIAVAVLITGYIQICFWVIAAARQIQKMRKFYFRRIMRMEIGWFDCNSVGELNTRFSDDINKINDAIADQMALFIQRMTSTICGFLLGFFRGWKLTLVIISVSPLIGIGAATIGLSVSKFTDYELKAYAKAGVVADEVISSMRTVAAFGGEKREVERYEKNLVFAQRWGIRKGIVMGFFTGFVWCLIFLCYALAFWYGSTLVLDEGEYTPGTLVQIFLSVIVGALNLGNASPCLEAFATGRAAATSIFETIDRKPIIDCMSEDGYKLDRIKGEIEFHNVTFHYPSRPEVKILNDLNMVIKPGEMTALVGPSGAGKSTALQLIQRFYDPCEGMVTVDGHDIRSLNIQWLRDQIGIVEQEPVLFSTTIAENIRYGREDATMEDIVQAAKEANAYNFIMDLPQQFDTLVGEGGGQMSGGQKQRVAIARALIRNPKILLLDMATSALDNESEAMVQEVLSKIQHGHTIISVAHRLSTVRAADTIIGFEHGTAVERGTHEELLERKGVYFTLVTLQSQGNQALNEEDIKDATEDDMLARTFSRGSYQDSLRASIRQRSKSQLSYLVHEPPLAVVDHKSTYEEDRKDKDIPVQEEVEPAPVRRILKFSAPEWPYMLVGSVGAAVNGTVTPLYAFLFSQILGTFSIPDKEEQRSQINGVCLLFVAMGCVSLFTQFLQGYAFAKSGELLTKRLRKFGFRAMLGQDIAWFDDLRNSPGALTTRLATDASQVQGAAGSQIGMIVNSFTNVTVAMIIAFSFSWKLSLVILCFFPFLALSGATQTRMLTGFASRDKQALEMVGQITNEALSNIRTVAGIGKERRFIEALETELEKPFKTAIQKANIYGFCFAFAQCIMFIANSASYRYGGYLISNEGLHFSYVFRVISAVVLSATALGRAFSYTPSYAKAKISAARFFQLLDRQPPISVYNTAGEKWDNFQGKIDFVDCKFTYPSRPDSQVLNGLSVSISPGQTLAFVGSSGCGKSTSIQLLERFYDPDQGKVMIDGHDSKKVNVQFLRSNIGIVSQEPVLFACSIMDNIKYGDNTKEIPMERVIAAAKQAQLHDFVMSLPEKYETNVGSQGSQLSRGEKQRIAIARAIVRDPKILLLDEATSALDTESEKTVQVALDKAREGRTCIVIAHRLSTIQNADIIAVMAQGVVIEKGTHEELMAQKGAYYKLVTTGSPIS
Description: Chinese Hamster Ovary (CHO) cells were obtained from Professor B. Stieger’s laboratory at University of Zurich, Zurich, Switzerland. Madin-Darby Canine Kidney strain II (MDCKII) cells were obtained from Nederlands Kanker Instituut (NKI), Amsterdam, Netherlands. NTCP-CHO cells, BSEP and MRP2 membrane vesicles were developed and validated at Solvo Biotechnology, Budaors, Hungary.
BSEP and MRP2 inhibition was studied in membrane vesicles isolated from sf9 insect cells overexpressing the respective transporters. Vesicular transport inhibition assays used test compounds incubated with membrane vesicle preparations (total protein: 50 µg/well) and probe substrates, taurocholate (2 µM) for BSEP or Estradiol-17-beta-glucuronide (0.2 µM) for MRP2, in the absence or presence of ATP. Reaction mixtures were preincubated for 15 min at 37°C. Reactions were started by the addition of 25 µL of 12 mM MgATP or assay buffer (for background controls), preincubated separately. Reactions were stopped after 5 min by the addition of 200 µL of ice-cold washing buffer and immediate filtration via glass fiber filters mounted to a 96-well plate (filter plate). The filters were washed, dried and the amount of substrate inside the filtered vesicles determined by liquid scintillation. Cyclosporin A (20 µM) or benzbromarone (100 µM), for BSEP or MRP2, respectively, were used as positive control inhibitors. Control membranes lacking transporter expression were used as negative control.
All assays were performed in duplicate. IC50 was defined as the test article concentration needed to inhibit the maximal transporter specific accumulation by 50%. IC50 values were calculated using non-linear fitting of % inhibition versus concentration to a sigmoidal curve with a variable Hill Coefficient using GraphPad Prism 5 (GraphPad Software Inc., San Diego, CA).

[1] = tested on: sandwich-cultured human hepatocytes; assay: ERA effect on hepatobiliary disposition of d8-taurocholate (B-CLEAR sandwich culture); assay type: cell-based; settings: n = 3 donors; for d8-TCA cellular accumulation (% control) / d8-TCA total accumulation (% control): 2.5 µM d8-TCA, 10 min
Experimental: Sandwich-cultured human hepatocytes were obtained from Celsis/IVT (Baltimore, MD) or Life Technologies (Durham, NC). Donors were male (n = 3) and female (n = 1) between the ages of 31 and 62 years old. Hepatic uptake, biliary excretion and in vitro biliary clearance (Clb) were determined using the B-CLEAR® hepatocyte sandwich culture model as described by Liu et al., 1999 [34]. In this system, hepatocytes form functional bile canalicular networks while maintaining the expression and function of key uptake and efflux transporters. The canalicular system of bile pockets remains separate from the cellular culture media due to tight junctions between cells. The integrity of these tight junctions is maintained in the presence of calcium (Plus (+) buffer) while in the absence of calcium (Minus (−) buffer), these tight junctions open and release the contents of the canalicular network into the media.
A dose solution containing 2.5 µM d8-taurocholic acid (d8-TCA) was prepared in Plus (+) Buffer. Co-incubation solutions were prepared by combining d8-TCA dose solution and ERA or rifamycin-SV. Hepatocytes were washed and then conditioned for 10 min in warm Plus (+) or Minus (−) buffer with and without ERA or rifamycin-SV. Pre-incubation solutions were then removed and replaced with dose or co-incubation solutions and incubated for 10 min at 37°C. Following this 10 minute incubation, the dose or co-incubation solutions were removed and the cells were then washed three times with ice-cold Plus (+) buffer. The plates were then frozen at −80°C until processed for bioanalysis.
Study samples were stored in their original 24-well plates at −80°C until prepared for analysis. A volume of 500 µL of cell lysis solution (70∶30 methanol:water) containing 25 nM internal standard was added to each well and mixed for 20 min of mixing. The volume in each well was then transferred to a 96-well filter plate stacked on a Greiner deep well collection plate. The filter plate/collection plate was then centrifuged at 2000 rcf for 5 min. The filtrate was then evaporated to dryness under nitrogen. Samples were reconstituted in 200 µL of sample diluent (60∶40 methanol:10 mM ammonium acetate, native pH), sealed, and placed on a plate shaker for 15 min. These samples were then transferred to a Whatman 96-well 0.45 µm PVDF filter plate stacked on a Costar 3956 plate (HPLC injection plate), centrifuged at 2000 rcf for 2–3 min, and sealed with a silicon cap mat prior to LC-MS/MS analysis. d8-TCA standard spiking solutions were prepared in 50∶50 methanol:water. For a given lysate standard or control, 10 µL was added to each well of a previously frozen analytical plate. Standards representing 0.5–100 pmoles/well and QC’s at the LLQ and ULQ were prepared. These lysate standards and controls were then further processed as described above for unknown study samples. Prepared samples were filtered and analyzed by LC-MS/MS using a Shimadzu binary HPLC system (Columbia, MD) and tandem mass spectrometry using Thermo Electron TSQ® Quantum Discovery MAX™ (Waltham, MA) with an Ion Max ESI source operating in negative ion electrospray ionization mode. Results for unknowns and QCs were calculated using a standard curve based on an internal standard processing method.
Data calculations were performed using Microsoft Excel, 2010 with all values reported as mean ± standard deviation (SD). Statistical comparisons across ERA treatments were performed using analysis of variance (ANOVA) with Fisher’s PLSD post hoc analysis (Statview 5.0, SAS Institute, Cary NC); statistical significance was considered to be P<0.05. All mass values were normalized to mg protein by taking the average protein mass in the taurocholate plate determined using a BCA protein assay (Pierce Biotechnology, Rockford, IL). Cellular accumulation determined in Minus (−) buffer (Accumulation Minus (−) Buffer) represents the total mass of analyte inside the hepatocyte at the end of the incubation time period. […]

| SMILES | IC50 (BSEP) | d8-TCA cellular accumulation (% control) ([1]; 33 µM ERA) [%] | d8-TCA cellular accumulation (% control) ([1]; 100 µM ERA) [%] | d8-TCA cellular accumulation (% control) ([1]; 11 µM ERA) [%] | d8-TCA total accumulation (% control) ([1]; 11 µM ERA) [%] | d8-TCA in vitro biliary clearance (Clb), percent of control ([1]; 11 µM ERA) [%] | d8-TCA total accumulation (% control) ([1]; 33 µM ERA) [%] | d8-TCA in vitro biliary clearance (Clb), percent of control ([1]; 33 µM ERA) [%] | d8-TCA total accumulation (% control) ([1]; 100 µM ERA) [%] | d8-TCA biliary efflux (BEI), percent of control ([1]; 100 µM ERA) [%] | d8-TCA in vitro biliary clearance (Clb), percent of control ([1]; 100 µM ERA) [%] | d8-TCA biliary efflux (BEI), percent of control ([1]; 33 µM ERA) [%] |
| --- | --- | --- | --- | --- | --- | --- | --- | --- | --- | --- | --- | --- |
| COC(c1ccccc1)(c1ccccc1)[C@H](Oc1nc(C)cc(C)n1)C(=O)O [ambrisentan] | > 100 µM | 71 | 52 |  |  |  |  |  |  |  |  |  |
| COc1ccccc1Oc1c(NS(=O)(=O)c2ccc(C(C)(C)C)cc2)nc(-c2ncccn2)nc1OCCO [bosentan] | 42 µM and 42.1 µM |  | 44.5±3.6 | 66.5±5.3 | 68.6±1.5 | 69.2±0.1 | 62.6±6.6 | 58.7±11.4 | 31.7±5.9 | 85.2±13.9 | 27.0±9.3 |  |
| CCCNS(=O)(=O)Nc1ncnc(OCCOc2ncc(Br)cn2)c1-c1ccc(Br)cc1 [macitentan] | 12 µM and 11.9 µM | 42.1±4.5 | 6.2±0.5 |  |  |  | 23.6±0.5 | 17.2±2.3 | 4.8±0.2 |  | 4.3±0.5 | 72.9±8.0 |
